According to patent publication US20050038074A1, “Mitotic kinesin inhibitors” (priority 2003, published 2005):

Biological target: T1, human KSP motor domain (KSP(367H)) (Homo sapiens, UniProt P52732)
T1 construct: were used to amplify the motor domain and the neck linker region; made in house; host or cells: E. coli BL21 (DE3)
T1 sequence (P52732 18-359 limits assumed): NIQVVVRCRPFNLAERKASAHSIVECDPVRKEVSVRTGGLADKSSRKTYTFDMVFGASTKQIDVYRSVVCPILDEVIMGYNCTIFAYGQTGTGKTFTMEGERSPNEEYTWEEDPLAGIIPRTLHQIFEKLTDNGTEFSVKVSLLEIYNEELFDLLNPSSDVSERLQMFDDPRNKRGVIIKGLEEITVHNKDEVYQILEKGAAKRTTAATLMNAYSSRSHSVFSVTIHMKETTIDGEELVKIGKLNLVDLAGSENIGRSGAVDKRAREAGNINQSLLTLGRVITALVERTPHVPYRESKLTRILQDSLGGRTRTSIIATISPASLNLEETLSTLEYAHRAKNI
Assay: Kinesin ATPase In Vitro Assay
Format: biochemical
Settings: kinesin motor domain with microtubules, 1 mM ATP, 23° C.; free phosphate by quinaldine red/ammonium molybdate
Excerpt: I. Kinesin ATPase In Vitro Assay
Cloning and Expression of Human Poly-Histidine Tagged KSP Motor Domain (KSP(367H))
Plasmids for the expression of the human KSP motor domain construct were cloned by PCR using a pBluescript full length human KSP construct (Blangy et al., Cell, vol.83, pp1159-1169, 1995) as a template. The N-terminal primer 5′-[…] (SEQ.ID.NO.: 1) and the C-terminal primer 5′-[…] […] (SEQ.ID.NO.: 2) were used to amplify the motor domain and the neck linker region. The PCR products were digested with AseI and XhoI, ligated into the NdeI/XhoI digestion product of pRSETa (Invitrogen) and transformed into E. coli BL21 (DE3).
Cells were grown at 37° C. to an OD600 of 0.5. After cooling the culture to room temperature expression of KSP was induced with 100 μM IPTG and incubation was continued overnight. Cells were pelleted by centrifugation and washed once with ice-cold PBS. Pellets were flash-frozen and stored −80° C.
Cell pellets were thawed on ice and resuspended in lysis buffer (50 mM K-HEPES, pH 8.0, 250 mM KCl, 0.1% Tween, 10 mM imidazole, 0.5 mM Mg-ATP, 1 mM PMSF, 2 mM benzimidine, 1× complete protease inhibitor cocktail (Roche)). Cell suspensions were incubated with 1 mg/ml lysozyme and 5 mM β-mercaptoethanol on ice for 10 minutes, followed by sonication (3×30 sec). All subsequent procedures were performed at 4° C. Lysates were centrifuged at 40,000×g for 40 minutes. Supernatants were diluted and loaded onto an SP Sepharose column (Pharmacia, 5 ml cartridge) in buffer A (50 mM K-HEPES, pH 6.8, 1 mM MgCl2, 1 mM EGTA, 10 μM Mg-ATP, 1 mM DTT) and eluted with a 0 to 750 mM KCl gradient in buffer A. Fractions containing KSP were pooled and incubated with Ni-NTA resin (Qiagen) for one hour. The resin was washed three times with buffer B (Lysis buffer minus PMSF and protease inhibitor cocktail), followed by three 15-minute incubations and washes with buffer B. Finally, the resin was incubated and washed for 15 minutes three times with buffer C (same as buffer B except for pH 6.0) and poured into a column. KSP was eluted with elution buffer (identical to buffer B except for 150 mM KCl and 250 mM imidazole). KSP-containing fractions were pooled, made 10% in sucrose, and stored at −80° C.
Microtubules are prepared from tubulin isolated from bovine brain. Purified tubulin (>97% MAP-free) at 1 mg/ml is polymerized at 37° C. in the presence of 10 JAM paclitaxel, 1 mM DTT, 1 mM GTP in BRB80 buffer (80 mM K-PIPES, 1 mM EGTA, 1 mM MgCl2 at pH 6.8). The resulting microtubules are separated from non-polymerized tubulin by ultracentrifugation and removal of the supernatant. The pellet, containing the microtubules, is gently resuspended in 10 μM paclitaxel, 1 mM DTT, 50 μg/ml ampicillin, and 5 μg/ml chloramphenicol in BRB80.
The kinesin motor domain is incubated with microtubules, 1 mM ATP (1:1 MgCl2: Na-ATP), and compound at 23° C. in buffer containing 80 mM K-HEPES (pH 7.0), 1 mM EGTA, 1 mM DTT, 1 mM MgCl2, and 50 mM KCl. The reaction is terminated by a 2-10 fold dilution with a final buffer composition of 80 mM HEPES and 50 mM EDTA. Free phosphate from the ATP hydrolysis reaction is measured via a quinaldine red/ammonium molybdate assay by adding 150 μl of quench C buffer containing a 2:1 ratio of quench A:quench B. Quench A contains 0.1 mg/mil quinaldine red and 0.14% polyvinyl alcohol; quench B contains 12.3 mM ammonium molybdate tetrahydrate in 1.15 M sulfuric acid. The reaction is incubated for 10 minutes at 23° C., and the absorbance of the phospho-molybdate complex is measured at 540 nm.

| Compound | IC50 [µM] |
| --- | --- |
| CN1CC[C@@H](N(C)C(=O)N2CC(c3cc(F)ccc3F)=C[C@@]2(CO)c2ccccc2)[C@@H](F)C1 [Compound 4-2, (2S)-4-(2,5-Difluorophenyl)-N-[(3S,4R)-3-fluoro-1-methylpiperidin-4-yl]-2-(hydroxymethyl)-N-methyl-2-phenyl-2,5-dihydro-1H-pyrrole-1-carboxamide] | ≤ 50 |
| CN1CC[C@H](N(C)C(=O)N2CC(c3cc(F)ccc3F)=C[C@H]2c2ccccc2)[C@H](F)C1 [Compound 7-1, (2S)-4-(2,5-Difluorophenyl)-N-[(3R,4S)-3-fluoro-1-methylpiperidin-4-yl]-N-methyl-2-phenyl-2,5-dihydro-1H-pyrrole-1-carboxamide] | ≤ 50 |
| CN1CC[C@@H](N(C)C(=O)N2CC(c3cc(F)ccc3F)=C[C@H]2c2ccccc2)[C@@H](F)C1 [Compound 7-2, (2S)-4-(2,5-Difluorophenyl)-N-[(3S,4R)-3-fluoro-1-methylpiperidin-4-yl]-N-methyl-2-phenyl-2,5-dihydro-1H-pyrrole-1-carboxamide] | ≤ 50 |
| CN(C(=O)N1CC(c2cc(F)ccc2F)=C[C@@]1(CO)c1ccccc1)[C@H]1CC[N+](C)([O-])C[C@H]1F (stereo partly drawn) [Compound 9-1, (2S)-4-(2,5-Difluorophenyl)-N-[(3R,4S)-3-fluoro-1-methyl-1-oxidopiperidin-4-yl]-2-(hydroxymethyl)-N-methyl-2-phenyl-2,5-dihydro-1H-pyrrole-1-carboxamide] | ≤ 50 |
| CN1CC[C@@H](N(C)C(=O)N2CC(c3cc(F)ccc3F)=C[C@H]2c2ccccc2)[C@H](F)C1 [Compound 7-3, (2S)-4-(2,5-Difluorophenyl)-N-[(3R,4R)-3-fluoro-1-methylpiperidin-4-yl]-N-methyl-2-phenyl-2,5-dihydro-1H-pyrrole-1-carboxamide] | ≤ 50 |
| CN1CC[C@H](N(C)C(=O)N2CC(c3cc(F)ccc3F)=C[C@@]2(CO)c2ccccc2)[C@H](F)C1 [Compound 3-1, (2S)-4-(2,5-Difluorophenyl)-N-[(3R,4S)-3-fluoro-1-methylpiperidin-4-yl]-2-(hydroxymethyl)-N-methyl-2-phenyl-2,5-dihydro-1H-pyrrole-1-carboxamide] | ≤ 50 |
| CN(C(=O)N1CC(c2cc(F)ccc2F)=C[C@@]1(CO)c1ccccc1)C1CCNCC1F (stereo in doubt) [Compound 10-2, (2S)-4-(2,5-Difluorophenyl)-N-[(3S,4R)-3-fluoropiperidin-4-yl]-2-(hydroxymethyl)-N-methyl-2-phenyl-2,5-dihydro-1H-pyrrole-1-carboxamide] | ≤ 50 |
| CN1CC[C@@H](N(C)C(=O)N2CC(c3cc(F)ccc3F)=C[C@@]2(CO)c2ccccc2)[C@H](F)C1 (single isomer, unassigned) [Compound 5-3] | ≤ 50 |

The next lines start with the values.

| IC50 [µM] | Compound |
| --- | --- |
| ≤ 50 | CC(C)N1CC[C@H](N(C)C(=O)N2CC(c3cc(F)ccc3F)=C[C@@]2(CO)c2ccccc2)[C@H](F)C1 [Compound 11-1, (2S)-4-(2,5-Difluorophenyl)-N-[(3R,4S)-3-fluoro-1-isopropylpiperidin-4-yl]-2-(hydroxymethyl)-N-methyl-2-phenyl-2,5-dihydro-1H-pyrrole-1-carboxamide] |
| ≤ 50 | CN(C(=O)N1CC(c2cc(F)ccc2F)=C[C@@]1(CO)c1ccccc1)[C@@H]1CCNC[C@@H]1F [Compound 12-1, (2S)-4-(2,5-Difluorophenyl)-N-[(3S,4R)-3-fluoropiperidin-4-yl]-2-(hydroxymethyl)-N-methyl-2-phenyl-2,5-dihydro-1H-pyrrole-1-carboxamide] |
| ≤ 50 | CN(C(=O)N1CC(c2cc(F)ccc2F)=C[C@@]1(CO)c1ccccc1)[C@@H]1CCNC[C@H]1F [Compound 12-2, (2S)-4-(2,5-Difluorophenyl)-N-[(3R,4R)-3-fluoropiperidin-4-yl]-2-(hydroxymethyl)-N-methyl-2-phenyl-2,5-dihydro-1H-pyrrole-1-carboxamide] |
| ≤ 50 | CN(C(=O)N1CC(c2cc(F)ccc2F)=C[C@@]1(CO)c1ccccc1)[C@H]1CCNC[C@@H]1F [Compound 12-3, (2S)-4-(2,5-Difluorophenyl)-N-[(3S,4S)-3-fluoropiperidin-4-yl]-2-(hydroxymethyl)-N-methyl-2-phenyl-2,5-dihydro-1H-pyrrole-1-carboxamide] |
